Two compounds from patent publication US4199501A, “Peptides related to somatostatin” (Eli Lilly and Company, priority 1978, dated 1980) can be followed below.

The test system of assay [1] is growth hormone (GH) secretion. The experiment in a line: Growth Hormone Inhibition In Rats (pentobarbital-stimulated GH secretion, serum GH by radioimmunoassay). It counts as in vivo. Details: Serum Growth Hormone Conc. Mean ± SEM: unit not given here. The following applies: male rats; for % Inhibition of GH release (as compared to saline controls): 20 minutes; for Serum Growth Hormone Conc. Mean ± SEM: with sodium pentobarbital 4 mg/rat I.P., blood 20 minutes later. As for the experimental part:
A. Growth Hormone Inhibition In Rats:
This test is a modification of the method of P. Brazeau et al. Endocrinology, 94, 184 (1974). Male rats (weighing 100-110 g.) are divided into three groups of eight rats each. Each rat is administered sodium pentobarbital at a dose of 4 mg/rat (I.P.) to stimulate growth hormone (GH) secretion. Simultaneously, one group of rats receives the test compound (S.C.); the second group receives somatostatin (S.C.); and the third group (control) receives saline (S.C.). Twenty-minutes later, the animals are decapitated and blood samples are collected. The serum concentration of growth hormone (GH) is determined by radioimmunoassay. The mean GH concentration (± standard error of the mean) is calculated for each group. The percent inhibition of GH release (as compared to saline controls) is then calculated for the test compound and for somatostatin. When tested as above-described, the peptide of Example 4, (D-Ala^2, D-Ala^5, Cha^6, D-Trp^8, D-Val^10 -somatastatin) representative of the peptides of Formula III, gave the results set forth below in Table I: […]

Another assay relates to serum glucagon. The experiment in a line: Glucagon Inhibition In Dogs (L-alanine infusion, serum glucagon by radioimmunoassay). It counts as in vivo, dog. As for the experimental part:
(§1) B. Insulin and Glucagon Inhibition In Dogs:
(§2) A normal dog is fasted overnight. An intravenous (I.V.) infusion of the test compound (dissolved in saline) is begun. Thirty minutes thereafter an additional infusion of L-alanine (dissolved in saline) is begun and is continued for a total of 15 minutes so that a total dose of about 1 mmole of L-alanine per kg. body weight is given. Infusion of the test compound is continued for an additional 15 minute period.
(§3) Blood samples are taken periodically before (at -20, -10 and -1 minutes) and after (5, 10, 15, 30, 35, 40, 45, 50, 60, 90, 120 and 150 minutes) the start of the infusion of the test compound. The serum insulin and serum glucagon concentrations in the blood are determined by radioimmunoassay. A plot is made of the glucagon and insulin concentrations versus time. The plot obtained from the test compound is compared to plots obtained from somatostatin and saline (controls) in similar experiments.
(§4) Infusion of L-alanine (in the absence of somatostatin or active test compound) causes an abrupt increase in serum insulin and glucagon concentrations. The concentrations return to basal levels after the L-alanine infusion is terminated.

A further assay has as its system serum insulin. As to the kind of experiment: Insulin Inhibition In Dogs (L-alanine infusion, serum insulin by radioimmunoassay). It counts as in vivo, dog. As for the experimental part:
as §1, §2, §3, §4

Where [2] appears, read: dog, I.V. infusion alone (no L-alanine).
The mark [3] stands for this setting: dog, I.V. infusion in the presence of L-alanine.
The mark [4] stands for this setting: normal fasted dog, I.V. infusion at doses of 0.195 and 0.230 μg/Kg/min, L-alanine infusion.

Consider `C[C@H](N)C(=O)NCC(=O)N[C@H]1CSSC[C@@H](C(=O)O)NC(=O)[C@H](CO)NC(=O)[C@H]([C@@H](C)O)NC(=O)[C@H](Cc2ccccc2)NC(=O)[C@H]([C@@H](C)O)NC(=O)[C@H](CCCCN)NC(=O)[C@H](Cc2c[nH]c3ccccc23)NC(=O)[C@H](Cc2ccccc2)NC(=O)[C@H](Cc2ccccc2)NC(=O)[C@H](CC(N)=O)NC(=O)[C@H](CCCCN)NC1=O` [Somatostatin], for which the “% Inhibition of GH release (as compared to saline controls)” value was determined as 22% in assay [1] (dose 2 (mg/kg) S.C.) and 64% in assay [1] (dose 50 (mg/kg) S.C.). Moreover, the “effect on basal serum concentration of glucagon” value in the assay on serum glucagon (setting [2]) was “causes a decrease”. In the assay with serum glucagon (setting [3]), the “effect on increase in glucagon concentration induced by L-alanine” value is given as “inhibits the increase”. In addition, in the assay on serum insulin (setting [2]), the “effect on basal serum concentration of insulin” value is given as “causes a decrease”. Further, the “effect on increase in insulin concentration induced by L-alanine” value in the assay with serum insulin (setting [3]) is “inhibits the increase”.

Regarding “L-Alanyl-D-alanyl-L-cysteinyl-L-lysyl-D-alanyl-L-cyclohexylalanyl-L-phenylalanyl-D-tryptophyl-L-lysyl-D-valyl-L-phenylalanyl-L-threonyl-L-seryl-L-cysteine cyclic (3->14) disulfide [Example 4]”, the “% Inhibition of GH release (as compared to saline controls)” value in assay [1] (dose 2 (mg/kg) S.C.) is given as 36%; in assay [1] (dose 50 (mg/kg) S.C.) it was 73%. The entries for the “Serum Growth Hormone Conc. Mean ± SEM” value in assay [1] (dose 2 (mg/kg) S.C.) and in assay [1] (dose 50 (mg/kg) S.C.) were 71.6 ± 29.5 and 29.8 ± 18.6, respectively. The “inhibition of glucagon concentration” value with serum glucagon (setting [4]) is given as “no significant inhibition”. Moreover, the “inhibition of insulin concentration” value in the assay on serum insulin (setting [4]) is reported as “no significant inhibition”.
